Reference: US20260007681A1, “INDOLE DERIVATIVES AS ESTROGEN RECEPTOR DEGRADERS” (REGENTS OF THE UNIVERSITY OF MICHIGAN, priority 2022, published 2026)

The compounds below were run against ER (Homo sapiens (Human), UniProt P03372) (assay: Western blot analysis (Compounds B1-B278)). Details: ER degradation by traditional Western blot; DC50 classes.
Format: cell-based
In short: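 Compound-treated cells were lysed in RIPA buffer (Tris.HCl pH 7.6, 1% NP-40, deoxycholate, 0.1% SDS) with protease inhibitors; equal protein was resolved on 10% SDS-PAGE, transferred to PVDF and immunoblotted. Band intensities were quantified and normalized to GAPDH.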

Sequence of ER (P03372 whole entry): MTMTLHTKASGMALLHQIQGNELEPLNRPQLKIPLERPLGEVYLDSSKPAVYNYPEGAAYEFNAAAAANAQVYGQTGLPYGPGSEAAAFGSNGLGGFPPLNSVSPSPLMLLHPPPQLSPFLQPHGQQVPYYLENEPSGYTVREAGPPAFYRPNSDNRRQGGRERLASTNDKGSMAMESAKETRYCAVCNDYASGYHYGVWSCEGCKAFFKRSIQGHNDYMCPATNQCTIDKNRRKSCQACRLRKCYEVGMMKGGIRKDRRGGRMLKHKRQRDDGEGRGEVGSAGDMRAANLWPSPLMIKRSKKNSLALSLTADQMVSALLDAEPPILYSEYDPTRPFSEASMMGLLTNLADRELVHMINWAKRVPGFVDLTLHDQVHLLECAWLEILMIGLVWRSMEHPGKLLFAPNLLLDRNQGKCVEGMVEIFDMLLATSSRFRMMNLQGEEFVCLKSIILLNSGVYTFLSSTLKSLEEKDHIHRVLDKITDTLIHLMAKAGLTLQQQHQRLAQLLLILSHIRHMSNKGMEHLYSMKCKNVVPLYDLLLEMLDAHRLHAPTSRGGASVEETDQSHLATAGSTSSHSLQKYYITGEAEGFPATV

SMILES | Traditional Western Degradation Potency
C[C@@H]1Cc2c([nH]c3ccccc23)[C@@H](c2c(F)cc(N3CCC(N4CCC(CN5Cc6cc7c(cc6C5)C(=O)N(C5CCC(=O)NC5=O)C7=O)CC4)C3)cc2F)N1CC(F)F (stereo partly drawn) [Compound B64, 6-((1-(1-(4-((1R,3R)-2-(2,2-difluoroethyl)-3-methyl-2,3,4,9-tetrahydro-1H-pyrido[3,4-b]indol-1-yl)-3,5-difluorophenyl)pyrrolidin-3-yl)piperidin-4-yl)methyl)-2-(2,6-dioxopiperidin-3-yl)-6,7-dihydropyrrolo[3,4-f]isoindole-1,3(2H,5H)-dione] | C (“C”: >100 nM)
C[C@@H]1Cc2c([nH]c3ccccc23)[C@@H](c2c(F)cc(N3CCC(CN4CCC(CN5Cc6cc7c(cc6C5)C(=O)N(C5CCC(=O)NC5=O)C7=O)CC4)CC3)cc2F)N1CC(F)F (stereo partly drawn) [Compound B65, 6-((1-((1-(4-((1R,3R)-2-(2,2-difluoroethyl)-3-methyl-2,3,4,9-tetrahydro-1H-pyrido[3,4-b]indol-1-yl)-3,5-difluorophenyl)piperidin-4-yl)methyl)piperidin-4-yl)methyl)-2-(2,6-dioxopiperidin-3-yl)-6,7-dihydropyrrolo[3,4-f]isoindole-1,3(2H,5H)-dione] | A (“A”: <10 nM)
C[C@@H]1Cc2c([nH]c3ccccc23)[C@@H](c2c(F)cc(N3CCC(CN4CCC(N5Cc6cc7c(cc6C5)C(=O)N(C5CCC(=O)NC5=O)C7=O)C4)CC3)cc2F)N1CC(F)F (stereo partly drawn) [Compound B66, 6-(1-((1-(4-((1R,3R)-2-(2,2-difluoroethyl)-3-methyl-2,3,4,9-tetrahydro-1H-pyrido[3,4-b]indol-1-yl)-3,5-difluorophenyl)piperidin-4-yl)methyl)pyrrolidin-3-yl)-2-(2,6-dioxopiperidin-3-yl)-6,7-dihydropyrrolo[3,4-f]isoindole-1,3(2H,5H)-dione] | A (“A”: <10 nM)
C[C@@H]1Cc2c([nH]c3ccccc23)[C@@H](c2c(F)cc(N3CCC(CN4CCCC(N5Cc6cc7c(cc6C5)C(=O)N(C5CCC(=O)NC5=O)C7=O)CC4)CC3)cc2F)N1CC(F)F (stereo partly drawn) [Compound B67, 6-(1-((1-(4-((1R,3R)-2-(2,2-difluoroethyl)-3-methyl-2,3,4,9-tetrahydro-1H-pyrido[3,4-b]indol-1-yl)-3,5-difluorophenyl)piperidin-4-yl)methyl)azepan-4-yl)-2-(2,6-dioxopiperidin-3-yl)-6,7-dihydropyrrolo[3,4-f]isoindole-1,3(2H,5H)-dione] | A (“A”: <10 nM)
C[C@@H]1Cc2c([nH]c3ccccc23)[C@@H](c2c(F)cc(N3CCC(CN4CC5(CC(N6Cc7cc8c(cc7C6)C(=O)N(C6CCC(=O)NC6=O)C8=O)C5)C4)CC3)cc2F)N1CC(F)F (stereo partly drawn) [Compound B68, 6-(2-((1-(4-((1R,3R)-2-(2,2-difluoroethyl)-3-methyl-2,3,4,9-tetrahydro-1H-pyrido[3,4-b]indol-1-yl)-3,5-difluorophenyl)piperidin-4-yl)methyl)-2-azaspiro[3.3]heptan-6-yl)-2-(2,6-dioxopiperidin-3-yl)-6,7-dihydropyrrolo[3,4-f]isoindole-1,3(2H,5H)-dione] | A (“A”: <10 nM)
C[C@@H]1Cc2c([nH]c3ccccc23)[C@@H](c2c(F)cc(N3CCC(CN4CCC5(CC4)CC(N4Cc6cc7c(cc6C4)C(=O)N(C4CCC(=O)NC4=O)C7=O)C5)CC3)cc2F)N1CC(F)F (stereo partly drawn) [Compound B69, 6-(7-((1-(4-((1R,3R)-2-(2,2-difluoroethyl)-3-methyl-2,3,4,9-tetrahydro-1H-pyrido[3,4-b]indol-1-yl)-3,5-difluorophenyl)piperidin-4-yl)methyl)-7-azaspiro[3.5]nonan-2-yl)-2-(2,6-dioxopiperidin-3-yl)-6,7-dihydropyrrolo[3,4-f]isoindole-1,3(2H,5H)-dione] | B (“B”: 10-100 nM)
C[C@@H]1Cc2c([nH]c3ccccc23)[C@@H](c2c(F)cc(N3CCC(CN4CCC5(CCC(N6Cc7cc8c(cc7C6)C(=O)N(C6CCC(=O)NC6=O)C8=O)C5)CC4)CC3)cc2F)N1CC(F)F (stereo partly drawn) [Compound B70, 6-(8-((1-(4-((1R,3R)-2-(2,2-difluoroethyl)-3-methyl-2,3,4,9-tetrahydro-1H-pyrido[3,4-b]indol-1-yl)-3,5-difluorophenyl)piperidin-4-yl)methyl)-8-azaspiro[4.5]decan-2-yl)-2-(2,6-dioxopiperidin-3-yl)-6,7-dihydropyrrolo[3,4-f]isoindole-1,3(2H,5H)-dione] | B (“B”: 10-100 nM)
C[C@@H]1Cc2c([nH]c3ccccc23)[C@@H](c2c(F)cc(N3CC(CC(=O)N4CC(N5Cc6cc7c(cc6C5)C(=O)N(C5CCC(=O)NC5=O)C7)C4)C3)cc2F)N1CC(F)F (stereo partly drawn) [Compound B71, 3-(6-(1-(2-(1-(4-((1R,3R)-2-(2,2-difluoroethyl)-3-methyl-2,3,4,9-tetrahydro-1H-pyrido[3,4-b]indol-1-yl)-3,5-difluorophenyl)azetidin-3-yl)acetyl)azetidin-3-yl)-1-oxo-3,5,6,7-tetrahydropyrrolo[3,4-f]isoindol-2(1H)-yl)piperidine-2,6-dione] | B (“B”: 10-100 nM)
C[C@@H]1Cc2c([nH]c3ccccc23)[C@@H](c2c(F)cc(N3CCC4(CCN(C(=O)CN5Cc6cc7c(cc6C5)C(=O)N(C5CCC(=O)NC5=O)C7=O)CC4)C3)cc2F)N1CC(F)F (stereo partly drawn) [Compound B72, 6-(2-(2-(4-((1R,3R)-2-(2,2-difluoroethyl)-3-methyl-2,3,4,9-tetrahydro-1H-pyrido[3,4-b]indol-1-yl)-3,5-difluorophenyl)-2,8-diazaspiro[4.5]decan-8-yl)-2-oxoethyl)-2-(2,6-dioxopiperidin-3-yl)-6,7-dihydropyrrolo[3,4-f]isoindole-1,3(2H,5H)-dione] | A (“A”: <10 nM)
C[C@@H]1Cc2c([nH]c3ccccc23)[C@@H](c2c(F)cc(N3CCC(CN4Cc5cc6c(cc5C4)C(=O)N(C4CCC(=O)NC4=O)C6)CC3)cc2F)N1CC(F)F (stereo partly drawn) [Compound B73, 3-(6-((1-(4-((1R,3R)-2-(2,2-difluoroethyl)-3-methyl-2,3,4,9-tetrahydro-1H-pyrido[3,4-b]indol-1-yl)-3,5-difluorophenyl)piperidin-4-yl)methyl)-1-oxo-3,5,6,7-tetrahydropyrrolo[3,4-f]isoindol-2(1H)-yl)piperidine-2,6-dione] | C (“C”: >100 nM)
C[C@@H]1Cc2c([nH]c3ccccc23)[C@@H](c2c(F)cc(N3CC(F)(C(=O)N4CCC(CN5Cc6cc7c(cc6C5)C(=O)N(C5CCC(=O)NC5=O)C7=O)CC4)C3)cc2F)N1CC(F)F (stereo partly drawn) [Compound B74, 6-((1-(1-(4-((1R,3R)-2-(2,2-difluoroethyl)-3-methyl-2,3,4,9-tetrahydro-1H-pyrido[3,4-b]indol-1-yl)-3,5-difluorophenyl)-3-fluoroazetidine-3-carbonyl)piperidin-4-yl)methyl)-2-(2,6-dioxopiperidin-3-yl)-6,7-dihydropyrrolo[3,4-f]isoindole-1,3(2H,5H)-dione] | B (“B”: 10-100 nM)
C[C@@H]1Cc2c([nH]c3ccccc23)[C@@H](c2c(F)cc(N3CC(F)(C(=O)N4CCC(F)(CN5Cc6cc7c(cc6C5)C(=O)N(C5CCC(=O)NC5=O)C7=O)CC4)C3)cc2F)N1CC(F)F (stereo partly drawn) [Compound B75, 6-((1-(1-(4-((1R,3R)-2-(2,2-difluoroethyl)-3-methyl-2,3,4,9-tetrahydro-1H-pyrido[3,4-b]indol-1-yl)-3,5-difluorophenyl)-3-fluoroazetidine-3-carbonyl)-4-fluoropiperidin-4-yl)methyl)-2-(2,6-dioxopiperidin-3-yl)-6,7-dihydropyrrolo[3,4-f]isoindole-1,3(2H,5H)-dione] | C (“C”: >100 nM)
C[C@@H]1Cc2c([nH]c3ccccc23)[C@@H](c2c(F)cc(N3CC(C(=O)N4CCC(CN5Cc6cc7c(cc6C5)C(=O)N(C5CCC(=O)NC5=O)C7=O)CC4)C3)cc2F)N1CC(F)F (stereo partly drawn) [Compound B76, 6-((1-(1-(4-((1R,3R)-2-(2,2-difluoroethyl)-3-methyl-2,3,4,9-tetrahydro-1H-pyrido[3,4-b]indol-1-yl)-3,5-difluorophenyl)azetidine-3-carbonyl)piperidin-4-yl)methyl)-2-(2,6-dioxopiperidin-3-yl)-6,7-dihydropyrrolo[3,4-f]isoindole-1,3(2H,5H)-dione] | A (“A”: <10 nM)
C[C@@H]1Cc2c([nH]c3ccccc23)[C@@H](c2c(F)cc(C3CCC(C(=O)N4CCC(N5Cc6cc7c(cc6C5)C(=O)N(C5CCC(=O)NC5=O)C7=O)CC4)CC3)cc2F)N1CC(F)F (stereo partly drawn) [Compound B77, 6-(1-(4-(4-((1R,3R)-2-(2,2-difluoroethyl)-3-methyl-2,3,4,9-tetrahydro-1H-pyrido[3,4-b]indol-1-yl)-3,5-difluorophenyl)cyclohexane-1-carbonyl)piperidin-4-yl)-2-(2,6-dioxopiperidin-3-yl)-6,7-dihydropyrrolo[3,4-f]isoindole-1,3(2H,5H)-dione] | A (“A”: <10 nM)
C[C@@H]1Cc2c([nH]c3ccccc23)[C@@H](c2c(F)cc(C3CCC(C(=O)N4CCC(F)(CN5Cc6cc7c(cc6C5)C(=O)N(C5CCC(=O)NC5=O)C7=O)CC4)CC3)cc2F)N1CC(F)F (stereo partly drawn) [Compound B78, 6-((1-(4-(4-((1R,3R)-2-(2,2-difluoroethyl)-3-methyl-2,3,4,9-tetrahydro-1H-pyrido[3,4-b]indol-1-yl)-3,5-difluorophenyl)cyclohexane-1-carbonyl)-4-fluoropiperidin-4-yl)methyl)-2-(2,6-dioxopiperidin-3-yl)-6,7-dihydropyrrolo[3,4-f]isoindole-1,3(2H,5H)-dione] | B (“B”: 10-100 nM)
C[C@@H]1Cc2c([nH]c3ccccc23)[C@@H](c2c(F)cc(C3CCC(C(=O)N4CCC(CN5Cc6cc7c(cc6C5)C(=O)N(C5CCC(=O)NC5=O)C7=O)CC4)CC3)cc2F)N1CC(F)F (stereo partly drawn) [Compound B79, 6-((1-(4-(4-((1R,3R)-2-(2,2-difluoroethyl)-3-methyl-2,3,4,9-tetrahydro-1H-pyrido[3,4-b]indol-1-yl)-3,5-difluorophenyl)cyclohexane-1-carbonyl)piperidin-4-yl)methyl)-2-(2,6-dioxopiperidin-3-yl)-6,7-dihydropyrrolo[3,4-f]isoindole-1,3(2H,5H)-dione] | C (“C”: >100 nM)
